Source: BigSolDB 2.1

CNC(=O)c1cc(Oc2ccc(N)cc2)ccn1
solubility (mole fraction)
Conditions	in THF	in acetone	in acetonitrile	in acetylacetone	in dichloromethane	in ethyl acetate	in methanol	in n-butanol	in n-propanol	in water
278.15 K	0.0919	0.046	0.0286	0.0202	0.00511	0.0568	0.00985	0.0041	0.00552	0.000327
283.15 K	0.0992	0.0481	0.033	0.0214	0.00821	0.0667	0.0126	0.0047	0.00674	0.00035
288.15 K	0.108	0.0514	0.0401	0.0232	0.0139	0.0793	0.0162	0.00592	0.00879	0.000387
293.15 K	0.119	0.0558	0.0497	0.0256	0.0211	0.0939	0.0212	0.00796	0.0114	0.000438
298.15 K	0.13	0.0616	0.0601	0.0285	0.0297	0.112	0.0285	0.0101	0.0145	0.000506
303.15 K	0.144	0.0683	0.0737	0.0321	0.0413	0.131	0.0378	0.0135	0.0185	0.000598
308.15 K	0.159	0.0766	0.091	0.0367	0.0549	0.154	0.0497	0.0174	0.0241	0.000715
313.15 K	0.174	0.086	0.11	0.042	0.0727	0.181	0.0642	0.0225	0.0312	0.000857
318.15 K	0.194	0.0975	0.134	0.048	0.0947	0.209	0.0825	0.0287	0.0398	0.00106
323.15 K	0.214	0.112	0.161	0.0558	0.123	0.242	0.106	0.0369	0.0507	0.00133
